Source: the supplement of paper PMC8960247
Counter-ions that a name gives are not always drawn. ± gives the standard error.

System: 621-102 (TSC2-deficient)
Experiment: relative viability vs DMSO; higher = less cytotoxic
Conditions: 0.1 µM; serum: 10% FBS; 72 h
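Note: immortalized renal angiomyolipoma cells stably carrying empty vector or TSC2, dosed in 384-well plates in DMEM, viability normalized to vehicle-treated wells within each plate.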

First: COc1cc2c(N3CCN(C(=O)Nc4ccc(OC(C)C)cc4)CC3)ncnc2cc1OCCCN1CCCCC1 [Tandutinib (MLN518)]
Second: COc1cc2/c(=N/c3ccc(Br)cc3F)nc[nH]c2cc1OCC1CCN(C)CC1 [Vandetanib]
The relative viability of the first is lower: 96.6 ± 3% for the first, 115 ± 1.7% for the second.

Going from `CNC(=O)c1cc(COc2nnc(Nc3ccc(Cl)cc3)c3ccoc23)ccn1` [Telatinib (BAY57-9352)] to `Clc1ccc(Nc2nnc(Cc3ccncc3)c3ccccc23)cc1` [Vatalanib], the relative viability rises from 94.8 ± 1.5% to 108 ± 1.8%.

Compared with `CCCc1nc2c(C)cc(-c3nc4ccccc4n3C)cc2n1Cc1ccc(-c2ccccc2C(=O)O)cc1` [Telmisartan], `CCCCC(=O)N(Cc1ccc(-c2ccccc2-c2nnn[nH]2)cc1)[C@H](C(=O)O)C(C)C` [Valsartan] is higher in relative viability: 105 ± 1.2% for the first, 117 ± 5.9% for the second.

Compared with `C[C@H](Cn1cnc2c(N)ncnc21)OCP(=O)(O)O` [Tenofovir], `CCO[C@@H]1OC(=O)C[C@@H]1NC(=O)[C@@H]1CCCN1C(=O)[C@@H](NC(=O)c1ccc(N)c(Cl)c1)C(C)(C)C` [VX-765] is higher in relative viability: 71.7 ± 5% for the first, 108 ± 4.6% for the second.

Going from `CN(C/C=C/C#CC(C)(C)C)Cc1cccc2ccccc12` [Terbinafine HCl] to `CC(C)(C)c1cc(C(C)(C)C)c(NC(=O)c2c[nH]c3ccccc3c2=O)cc1O` [VX-770], the relative viability rises from 94.1 ± 2.5% to 119 ± 3.2%.

`CCC(=O)O[C@H]1CC[C@H]2[C@@H]3CCC4=CC(=O)CC[C@]4(C)[C@H]3CC[C@]12C` [Testosterone propionate (Agovirin)] and `C[C@]12CC[C@H]3[C@@H](CC[C@@]45O[C@@H]4C(O)=C(C#N)C[C@]35C)[C@@H]1CC[C@@H]2O` [Trilostane] are within error of each other in relative viability: 104 ± 1.1% for the first, 101 ± 2.1% for the second.

`CCCCNc1ccc(C(=O)OCCN(C)C)cc1` [Tetracaine HCl] and `CC(/C=C/C(=O)NO)=C\[C@@H](C)C(=O)c1ccc(N(C)C)cc1` [Trichostatin A] are within error of each other in relative viability: 102 ± 3.7% for the first, 104.3 ± 0.83% for the second.

Going from `C[N+]1(C)[C@@H]2C[C@@H](OC(=O)C(O)(c3cccs3)c3cccs3)C[C@H]1[C@@H]1O[C@@H]12` [Tiotropium Bromide hydrate] to `O=C(O[C@H]1C[C@H]2CC[C@@H](C1)[N+]21CCCC1)C(O)(c1ccccc1)c1ccccc1` [Trospium chloride (Sanctura)], the relative viability falls from 112.5 ± 0.9% to 95.4 ± 6.1%.

Compared with `C[N+]1(C)[C@@H]2C[C@@H](OC(=O)C(O)(c3cccs3)c3cccs3)C[C@H]1[C@@H]1O[C@@H]12` [Tiotropium], `CN1[C@@H]2CC[C@H]1C[C@@H](OC(=O)c1c[nH]c3ccccc13)C2` [Tropisetron HCl] is lower in relative viability: 111 ± 2.6% for the first, 106 ± 2% for the second.

`O=c1oc2cc(O)ccc2s1` [Tioxolone] and `NC(=O)c1cccc(-c2cccc(OC(=O)NC3CCCCC3)c2)c1` [URB597] are within error of each other in relative viability: 94.8 ± 1.4% for the first, 98.4 ± 2.9% for the second.

Going from `O=c1n(CCCN2CCN(c3cccc(Cl)c3)CC2)nc2ccccn12` [Trazodone HCl] to `CN1CCc2c(c3ccccc3n2Cc2ccc(C(=O)NO)cc2)C1` [Tubastatin A HCl], the relative viability falls from 99.8 ± 4.6% to 90.1 ± 3.6%.

First: N#CC(=C(/N)Sc1ccccc1N)/C(C#N)=C(\N)Sc1ccccc1N [U0126-EtOH]
Second: NC(=O)c1ccc(N(C(N)=O)c2c(F)cccc2F)nc1-c1ccc(F)cc1F [VX-702]
The relative viability of the first is higher: 103 ± 1.1% for the first, 98.6 ± 1.4% for the second.

`CC(C)(C)C#Cc1cc(N(C(=O)[C@H]2CC[C@H](C)CC2)[C@H]2CC[C@H](O)CC2)c(C(=O)O)s1` [VX-222] and `COc1ccc(C(CN(C)C)C2(O)CCCCC2)cc1` (centres undefined) [Venlafaxine HCl] are within error of each other in relative viability: 111 ± 1.3% for the first, 107 ± 5.2% for the second.

`O=c1ncn2nc(Sc3ccc(F)cc3F)ccc2c1-c1c(Cl)cccc1Cl` [VX-745] and `CCCc1nc(C)c2c(=O)nc(-c3cc(S(=O)(=O)N4CCN(CC)CC4)ccc3OCC)[nH]n12` [Vardenafil (Vivanza)] are within error of each other in relative viability: 104 ± 2.1% for the first, 104.8 ± 0.49% for the second.

Same assay, conditions: 1 µM; serum: 10% FBS; 72 h

`COc1cc2c(N3CCN(C(=O)Nc4ccc(OC(C)C)cc4)CC3)ncnc2cc1OCCCN1CCCCC1` [Tandutinib (MLN518)] and `COc1cc2/c(=N/c3ccc(Br)cc3F)nc[nH]c2cc1OCC1CCN(C)CC1` [Vandetanib] are within error of each other in relative viability: 98.2 ± 3.4% for the first, 102 ± 1.1% for the second.

Going from `CNC(=O)c1cc(COc2nnc(Nc3ccc(Cl)cc3)c3ccoc23)ccn1` [Telatinib (BAY57-9352)] to `Clc1ccc(Nc2nnc(Cc3ccncc3)c3ccccc23)cc1` [Vatalanib], the relative viability rises from 84.3 ± 1.3% to 110 ± 2.7%.

`CCCc1nc2c(C)cc(-c3nc4ccccc4n3C)cc2n1Cc1ccc(-c2ccccc2C(=O)O)cc1` [Telmisartan] and `CCCCC(=O)N(Cc1ccc(-c2ccccc2-c2nnn[nH]2)cc1)[C@H](C(=O)O)C(C)C` [Valsartan] are within error of each other in relative viability: 112 ± 6.6% for the first, 107 ± 1.1% for the second.

Compared with `C[C@H](Cn1cnc2c(N)ncnc21)OCP(=O)(O)O` [Tenofovir], `CCO[C@@H]1OC(=O)C[C@@H]1NC(=O)[C@@H]1CCCN1C(=O)[C@@H](NC(=O)c1ccc(N)c(Cl)c1)C(C)(C)C` [VX-765] is higher in relative viability: 70.8 ± 6.7% for the first, 101 ± 4% for the second.

First: CN(C/C=C/C#CC(C)(C)C)Cc1cccc2ccccc12 [Terbinafine HCl]
Second: CC(C)(C)c1cc(C(C)(C)C)c(NC(=O)c2c[nH]c3ccccc3c2=O)cc1O [VX-770]
The relative viability of the first is lower: 101 ± 3% for the first, 111 ± 3.6% for the second.

`CCC(=O)O[C@H]1CC[C@H]2[C@@H]3CCC4=CC(=O)CC[C@]4(C)[C@H]3CC[C@]12C` [Testosterone propionate (Agovirin)] and `C[C@]12CC[C@H]3[C@@H](CC[C@@]45O[C@@H]4C(O)=C(C#N)C[C@]35C)[C@@H]1CC[C@@H]2O` [Trilostane] are within error of each other in relative viability: 104 ± 2.2% for the first, 98.3 ± 5.8% for the second.

First: CCCCNc1ccc(C(=O)OCCN(C)C)cc1 [Tetracaine HCl]
Second: CC(/C=C/C(=O)NO)=C\[C@@H](C)C(=O)c1ccc(N(C)C)cc1 [Trichostatin A]
The relative viability of the first is lower: 102 ± 3.2% for the first, 110 ± 1.2% for the second.

`C[N+]1(C)[C@@H]2C[C@@H](OC(=O)C(O)(c3cccs3)c3cccs3)C[C@H]1[C@@H]1O[C@@H]12` [Tiotropium Bromide hydrate] and `O=C(O[C@H]1C[C@H]2CC[C@@H](C1)[N+]21CCCC1)C(O)(c1ccccc1)c1ccccc1` [Trospium chloride (Sanctura)] are within error of each other in relative viability: 116 ± 1.3% for the first, 112 ± 5% for the second.

Compared with `C[N+]1(C)[C@@H]2C[C@@H](OC(=O)C(O)(c3cccs3)c3cccs3)C[C@H]1[C@@H]1O[C@@H]12` [Tiotropium], `CN1[C@@H]2CC[C@H]1C[C@@H](OC(=O)c1c[nH]c3ccccc13)C2` [Tropisetron HCl] is lower in relative viability: 117 ± 4.4% for the first, 99.47 ± 0.15% for the second.

`O=c1oc2cc(O)ccc2s1` [Tioxolone] and `NC(=O)c1cccc(-c2cccc(OC(=O)NC3CCCCC3)c2)c1` [URB597] are within error of each other in relative viability: 104 ± 2.6% for the first, 99.6 ± 4.4% for the second.

Compared with `O=c1n(CCCN2CCN(c3cccc(Cl)c3)CC2)nc2ccccn12` [Trazodone HCl], `CN1CCc2c(c3ccccc3n2Cc2ccc(C(=O)NO)cc2)C1` [Tubastatin A HCl] is lower in relative viability: 107 ± 1.8% for the first, 82.6 ± 2.3% for the second.

First: N#CC(=C(/N)Sc1ccccc1N)/C(C#N)=C(\N)Sc1ccccc1N [U0126-EtOH]
Second: NC(=O)c1ccc(N(C(N)=O)c2c(F)cccc2F)nc1-c1ccc(F)cc1F [VX-702]
The relative viability of the first is lower: 99.47 ± 0.83% for the first, 111.1 ± 0.41% for the second.

Compared with `CC(C)(C)C#Cc1cc(N(C(=O)[C@H]2CC[C@H](C)CC2)[C@H]2CC[C@H](O)CC2)c(C(=O)O)s1` [VX-222], `COc1ccc(C(CN(C)C)C2(O)CCCCC2)cc1` (centres undefined) [Venlafaxine HCl] is lower in relative viability: 103 ± 4.3% for the first, 91.33 ± 0.33% for the second.

Going from `O=c1ncn2nc(Sc3ccc(F)cc3F)ccc2c1-c1c(Cl)cccc1Cl` [VX-745] to `CCCc1nc(C)c2c(=O)nc(-c3cc(S(=O)(=O)N4CCN(CC)CC4)ccc3OCC)[nH]n12` [Vardenafil (Vivanza)], the relative viability falls from 106 ± 4% to 96.25 ± 0.9%.

Same assay, conditions: 10 µM; serum: 10% FBS; 72 h

First: COc1cc2c(N3CCN(C(=O)Nc4ccc(OC(C)C)cc4)CC3)ncnc2cc1OCCCN1CCCCC1 [Tandutinib (MLN518)]
Second: COc1cc2/c(=N/c3ccc(Br)cc3F)nc[nH]c2cc1OCC1CCN(C)CC1 [Vandetanib]
The relative viability of the first is higher: 80 ± 2.4% for the first, 33.9 ± 2.9% for the second.

Compared with `CNC(=O)c1cc(COc2nnc(Nc3ccc(Cl)cc3)c3ccoc23)ccn1` [Telatinib (BAY57-9352)], `Clc1ccc(Nc2nnc(Cc3ccncc3)c3ccccc23)cc1` [Vatalanib] is higher in relative viability: 48.4 ± 3.9% for the first, 117.2 ± 0.94% for the second.

First: CCCc1nc2c(C)cc(-c3nc4ccccc4n3C)cc2n1Cc1ccc(-c2ccccc2C(=O)O)cc1 [Telmisartan]
Second: CCCCC(=O)N(Cc1ccc(-c2ccccc2-c2nnn[nH]2)cc1)[C@H](C(=O)O)C(C)C [Valsartan]
The relative viability of the first is higher: 113.2 ± 0.47% for the first, 104 ± 1.3% for the second.

Compared with `C[C@H](Cn1cnc2c(N)ncnc21)OCP(=O)(O)O` [Tenofovir], `CCO[C@@H]1OC(=O)C[C@@H]1NC(=O)[C@@H]1CCCN1C(=O)[C@@H](NC(=O)c1ccc(N)c(Cl)c1)C(C)(C)C` [VX-765] is higher in relative viability: 60.2 ± 5.8% for the first, 106 ± 1.8% for the second.

Compared with `CN(C/C=C/C#CC(C)(C)C)Cc1cccc2ccccc12` [Terbinafine HCl], `CC(C)(C)c1cc(C(C)(C)C)c(NC(=O)c2c[nH]c3ccccc3c2=O)cc1O` [VX-770] is lower in relative viability: 91.3 ± 3.5% for the first, 59.3 ± 16% for the second.

`CCC(=O)O[C@H]1CC[C@H]2[C@@H]3CCC4=CC(=O)CC[C@]4(C)[C@H]3CC[C@]12C` [Testosterone propionate (Agovirin)] and `C[C@]12CC[C@H]3[C@@H](CC[C@@]45O[C@@H]4C(O)=C(C#N)C[C@]35C)[C@@H]1CC[C@@H]2O` [Trilostane] are within error of each other in relative viability: 103 ± 4.2% for the first, 99.2 ± 5% for the second.

Going from `CCCCNc1ccc(C(=O)OCCN(C)C)cc1` [Tetracaine HCl] to `CC(/C=C/C(=O)NO)=C\[C@@H](C)C(=O)c1ccc(N(C)C)cc1` [Trichostatin A], the relative viability falls from 105 ± 1.1% to 74.9 ± 3.8%.

First: C[N+]1(C)[C@@H]2C[C@@H](OC(=O)C(O)(c3cccs3)c3cccs3)C[C@H]1[C@@H]1O[C@@H]12 [Tiotropium Bromide hydrate]
Second: O=C(O[C@H]1C[C@H]2CC[C@@H](C1)[N+]21CCCC1)C(O)(c1ccccc1)c1ccccc1 [Trospium chloride (Sanctura)]
The relative viability of the first is higher: 117.1 ± 0.39% for the first, 110 ± 3.5% for the second.

Compared with `C[N+]1(C)[C@@H]2C[C@@H](OC(=O)C(O)(c3cccs3)c3cccs3)C[C@H]1[C@@H]1O[C@@H]12` [Tiotropium], `CN1[C@@H]2CC[C@H]1C[C@@H](OC(=O)c1c[nH]c3ccccc13)C2` [Tropisetron HCl] is lower in relative viability: 112.5 ± 1.1% for the first, 93.3 ± 1.3% for the second.

`O=c1oc2cc(O)ccc2s1` [Tioxolone] and `NC(=O)c1cccc(-c2cccc(OC(=O)NC3CCCCC3)c2)c1` [URB597] are within error of each other in relative viability: 99.31 ± 0.92% for the first, 92.7 ± 5.8% for the second.

First: O=c1n(CCCN2CCN(c3cccc(Cl)c3)CC2)nc2ccccn12 [Trazodone HCl]
Second: CN1CCc2c(c3ccccc3n2Cc2ccc(C(=O)NO)cc2)C1 [Tubastatin A HCl]
The relative viability of the first is higher: 103 ± 4.7% for the first, 75.4 ± 2.7% for the second.

Compared with `N#CC(=C(/N)Sc1ccccc1N)/C(C#N)=C(\N)Sc1ccccc1N` [U0126-EtOH], `NC(=O)c1ccc(N(C(N)=O)c2c(F)cccc2F)nc1-c1ccc(F)cc1F` [VX-702] is higher in relative viability: 93.3 ± 4.4% for the first, 104 ± 4% for the second.

Compared with `CC(C)(C)C#Cc1cc(N(C(=O)[C@H]2CC[C@H](C)CC2)[C@H]2CC[C@H](O)CC2)c(C(=O)O)s1` [VX-222], `COc1ccc(C(CN(C)C)C2(O)CCCCC2)cc1` (centres undefined) [Venlafaxine HCl] is lower in relative viability: 106 ± 4.4% for the first, 91.6 ± 2.6% for the second.

`O=c1ncn2nc(Sc3ccc(F)cc3F)ccc2c1-c1c(Cl)cccc1Cl` [VX-745] and `CCCc1nc(C)c2c(=O)nc(-c3cc(S(=O)(=O)N4CCN(CC)CC4)ccc3OCC)[nH]n12` [Vardenafil (Vivanza)] are within error of each other in relative viability: 93.3 ± 3.9% for the first, 97.2 ± 1.1% for the second.
